Laboratory results taken from patent publication US12077503B2, “Substituted cyclic amides and their use as herbicides” (FMC CORPORATION, priority 2015, dated 2024).

Experiments:
Assay type in all cases: in vivo
[1] = test system: giant foxtail (Setaria faberii); experiment: Test A preemergence; details: Preemergence; for Plant response rating, Foxtail, Giant: 125 g ai/ha, visual injury after approximately 10 d, 0 to 100 scale where 0 is no effect and 100 is complete control; for Foxtail, Giant plant response rating (0 to 100 scale, 0 is no effect, 100 is complete control): 500 g ai/ha, visual injury approx. 10 d
Excerpt: (§1) Seeds of plant species selected from barnyardgrass (Echinochloa crus-galli), Kochia (Kochia scoparia), ragweed (common ragweed, Ambrosia elatior), ryegrass, Italian (Italian ryegrass, Lolium multiflorum), crabgrass, large (Digitaria sanguinalis), giant foxtail (Setaria faberii), green foxtail (Setaria viridis), morningglory (Ipomoea spp.), pigweed (Amaranthus retroflexus), velvetleaf (Abutilon theophrasti), wheat (Triticum aestivum), and corn (Zea mays) were planted into a blend of loam soil and sand and treated preemergence with a directed soil spray using test chemicals formulated in anon-phytotoxic solvent mixture which included a surfactant.
(§2) At the same time, plants selected from these crop and weed species and also blackgrass (Alopecurus myosuroides), and Galium (catchweed bedstraw, Galium aparine) were planted in pots containing the same blend of loam soil and sand and treated with postemergence applications of test chemicals formulated in the same manner. Plants ranged in height from 2 to 10 cm and were in the one- to two-leaf stage for the postemergence treatment. Treated plants and untreated controls were maintained in a greenhouse for approximately 10 d, after which time all treated plants were compared to untreated controls and visually evaluated for injury. Plant response ratings, summarized in Table A, are based on a 0 to 100 scale where 0 is no effect and 100 is complete control. A dash (-) response means no test result.

[2] = test system: pigweed (Amaranthus retroflexus); experiment: Test A preemergence; details: Preemergence; for Plant response rating, Pigweed: 125 g ai/ha, visual injury after approximately 10 d, 0 to 100 scale where 0 is no effect and 100 is complete control; for Pigweed plant response rating (0 to 100 scale, 0 is no effect, 100 is complete control): 500 g ai/ha, visual injury approx. 10 d
Excerpt: as §1, §2

[3] = test system: ragweed (common ragweed, Ambrosia elatior); experiment: Test A preemergence; details: Preemergence; for Plant response rating, Ragweed: 125 g ai/ha, visual injury after approximately 10 d, 0 to 100 scale where 0 is no effect and 100 is complete control; for Ragweed plant response rating (0 to 100 scale, 0 is no effect, 100 is complete control): 500 g ai/ha, visual injury approx. 10 d
Excerpt: as §1, §2

[4] = test system: barnyardgrass (Echinochloa crus-galli); experiment: Test A preemergence; details: Preemergence; for Plant response rating, Barnyardgrass: 125 g ai/ha, visual injury after approximately 10 d, 0 to 100 scale where 0 is no effect and 100 is complete control; for Barnyardgrass plant response rating (0 to 100 scale, 0 is no effect, 100 is complete control): 500 g ai/ha, visual injury approx. 10 d
Excerpt: as §1, §2

[5] = test system: ryegrass, Italian (Italian ryegrass, Lolium multiflorum); experiment: Test A preemergence; details: Preemergence; for Plant response rating, Ryegrass, Italian: 125 g ai/ha, visual injury after approximately 10 d, 0 to 100 scale where 0 is no effect and 100 is complete control; for Ryegrass, Italian plant response rating (0 to 100 scale, 0 is no effect, 100 is complete control): 500 g ai/ha, visual injury approx. 10 d
Excerpt: as §1, §2

Kochia (Kochia scoparia) [6] = experiment: Test A preemergence; details: Preemergence; for Plant response rating, Kochia: 125 g ai/ha, visual injury after approximately 10 d, 0 to 100 scale where 0 is no effect and 100 is complete control; for Kochia plant response rating (0 to 100 scale, 0 is no effect, 100 is complete control): 500 g ai/ha, visual injury approx. 10 d
Excerpt: as §1, §2

[7] = test system: giant foxtail (Setaria faberii); experiment: Test A postemergence
Excerpt: as §1, §2

[8] = test system: pigweed (Amaranthus retroflexus); experiment: Test A postemergence
Excerpt: as §1, §2

corn (Zea mays) = experiment: Test A postemergence
Excerpt: as §1, §2

[9] = test system: wheat (Triticum aestivum); experiment: Test A postemergence
Excerpt: as §1, §2

[10] = test system: ragweed (common ragweed, Ambrosia elatior); experiment: Test A postemergence
Excerpt: as §1, §2

[11] = test system: Galium (catchweed bedstraw, Galium aparine); experiment: Test A postemergence
Excerpt: as §1, §2

[12] = test system: barnyardgrass (Echinochloa crus-galli); experiment: Test A postemergence
Excerpt: as §1, §2

[13] = test system: ryegrass, Italian (Italian ryegrass, Lolium multiflorum); experiment: Test A postemergence
Excerpt: as §1, §2

Kochia (Kochia scoparia) [14] = experiment: Test A postemergence
Excerpt: as §1, §2

[15] = test system: blackgrass (Alopecurus myosuroides); experiment: Test A postemergence
Excerpt: as §1, §2

[16] = 125 g ai/ha, postemergence, visual rating after approx. 10 d, 0 to 100 scale (0 no effect, 100 complete control)
[17] = Postemergence, 500 g ai/ha, 0 to 100 scale where 0 is no effect and 100 is complete control

## CN1CC(c2cccc(C(F)(F)F)c2)C(C(=O)Nc2ccc(F)cc2F)C1=O (stereo not drawn) [Compound 571]
[1]
  Plant response rating, Foxtail, Giant: 90
  Foxtail, Giant plant response rating (0 to 100 scale, 0 is no effect, 100 is complete control): 100
[2]
  Plant response rating, Pigweed: 30
  Pigweed plant response rating (0 to 100 scale, 0 is no effect, 100 is complete control): 80
[3]
  Plant response rating, Ragweed: 0
  Ragweed plant response rating (0 to 100 scale, 0 is no effect, 100 is complete control): 0
[4]
  Plant response rating, Barnyardgrass: 90
  Barnyardgrass plant response rating (0 to 100 scale, 0 is no effect, 100 is complete control): 90
[5]
  Plant response rating, Ryegrass, Italian: 60
  Ryegrass, Italian plant response rating (0 to 100 scale, 0 is no effect, 100 is complete control): 80
Kochia (Kochia scoparia) [6]
  Plant response rating, Kochia: 60
  Kochia plant response rating (0 to 100 scale, 0 is no effect, 100 is complete control): 80
[7]; [16]
  Plant response rating, Foxtail, Giant: 90
[7]; [17]
  Plant response rating, Foxtail, Giant: 90
[8]; [16]
  Plant response rating, Pigweed: 20
[8]; [17]
  Plant response rating, Pigweed: 30
Corn (Zea mays); [16]
  Plant response rating, Corn: 60
Corn (Zea mays); [17]
  Plant response rating, Corn: 80
[9]; [16]
  Plant response rating, Wheat: 60
[9]; [17]
  Plant response rating, Wheat: 70
[10]; [16]
  Plant response rating, Ragweed: 0
[10]; [17]
  Plant response rating, Ragweed: 0
[11]; [16]
  Plant response rating, Galium: 50
[11]; [17]
  Plant response rating, Galium: 70
[12]; [16]
  Plant response rating, Barnyardgrass: 90
[12]; [17]
  Plant response rating, Barnyardgrass: 100
[13]; [16]
  Plant response rating, Ryegrass, Italian: 60
[13]; [17]
  Plant response rating, Ryegrass, Italian: 60
Kochia (Kochia scoparia) [14]; [16]
  Plant response rating, Kochia: 30
Kochia (Kochia scoparia) [14]; [17]
  Plant response rating, Kochia: 60
[15]; [16]
  Plant response rating, Blackgrass: 70
[15]; [17]
  Plant response rating, Blackgrass: 80

## CN1CC(c2cccc(C(F)(F)F)c2)C(C(=O)Nc2ccccc2[N+](=O)[O-])C1=O (stereo not drawn) [Compound 572]
[1]
  Plant response rating, Foxtail, Giant: 90
  Foxtail, Giant plant response rating (0 to 100 scale, 0 is no effect, 100 is complete control): 90
[2]
  Plant response rating, Pigweed: 40
  Pigweed plant response rating (0 to 100 scale, 0 is no effect, 100 is complete control): 80
[3]
  Plant response rating, Ragweed: 0
  Ragweed plant response rating (0 to 100 scale, 0 is no effect, 100 is complete control): 50
[4]
  Plant response rating, Barnyardgrass: 90
  Barnyardgrass plant response rating (0 to 100 scale, 0 is no effect, 100 is complete control): 90
[5]
  Plant response rating, Ryegrass, Italian: 50
  Ryegrass, Italian plant response rating (0 to 100 scale, 0 is no effect, 100 is complete control): 50
Kochia (Kochia scoparia) [6]
  Plant response rating, Kochia: 70
  Kochia plant response rating (0 to 100 scale, 0 is no effect, 100 is complete control): 80
[7]; [16]
  Plant response rating, Foxtail, Giant: 90
[7]; [17]
  Plant response rating, Foxtail, Giant: 90
[8]; [16]
  Plant response rating, Pigweed: 30
[8]; [17]
  Plant response rating, Pigweed: 40
Corn (Zea mays); [16]
  Plant response rating, Corn: 60
Corn (Zea mays); [17]
  Plant response rating, Corn: 80
[9]; [16]
  Plant response rating, Wheat: 60
[9]; [17]
  Plant response rating, Wheat: 70
[10]; [16]
  Plant response rating, Ragweed: 0
[10]; [17]
  Plant response rating, Ragweed: 20
[11]; [16]
  Plant response rating, Galium: 50
[11]; [17]
  Plant response rating, Galium: 60
[12]; [16]
  Plant response rating, Barnyardgrass: 90
[12]; [17]
  Plant response rating, Barnyardgrass: 90
[13]; [16]
  Plant response rating, Ryegrass, Italian: 30
[13]; [17]
  Plant response rating, Ryegrass, Italian: 60
Kochia (Kochia scoparia) [14]; [16]
  Plant response rating, Kochia: 20
Kochia (Kochia scoparia) [14]; [17]
  Plant response rating, Kochia: 60
[15]; [16]
  Plant response rating, Blackgrass: 70
[15]; [17]
  Plant response rating, Blackgrass: 80

## CN1CC(c2cccc(C(F)(F)F)c2)C(C(=O)Nc2ccccc2)C1=O (stereo not drawn) [Compound 577]
[1]
  Plant response rating, Foxtail, Giant: 90
  Foxtail, Giant plant response rating (0 to 100 scale, 0 is no effect, 100 is complete control): 100
[2]
  Plant response rating, Pigweed: 0
  Pigweed plant response rating (0 to 100 scale, 0 is no effect, 100 is complete control): 40
[3]
  Plant response rating, Ragweed: 0
  Ragweed plant response rating (0 to 100 scale, 0 is no effect, 100 is complete control): 40
[4]
  Plant response rating, Barnyardgrass: 90
  Barnyardgrass plant response rating (0 to 100 scale, 0 is no effect, 100 is complete control): 100
[5]
  Plant response rating, Ryegrass, Italian: 40
  Ryegrass, Italian plant response rating (0 to 100 scale, 0 is no effect, 100 is complete control): 80
Kochia (Kochia scoparia) [6]
  Plant response rating, Kochia: 50
  Kochia plant response rating (0 to 100 scale, 0 is no effect, 100 is complete control): 70
[7]; [16]
  Plant response rating, Foxtail, Giant: 90
[7]; [17]
  Plant response rating, Foxtail, Giant: 90
[8]; [16]
  Plant response rating, Pigweed: 0
[8]; [17]
  Plant response rating, Pigweed: 0
Corn (Zea mays); [16]
  Plant response rating, Corn: 60
Corn (Zea mays); [17]
  Plant response rating, Corn: 80
[9]; [16]
  Plant response rating, Wheat: 40
[9]; [17]
  Plant response rating, Wheat: 70
[10]; [16]
  Plant response rating, Ragweed: 0
[10]; [17]
  Plant response rating, Ragweed: 30
[11]; [16]
  Plant response rating, Galium: 30
[11]; [17]
  Plant response rating, Galium: 50
[12]; [16]
  Plant response rating, Barnyardgrass: 90
[12]; [17]
  Plant response rating, Barnyardgrass: 100
[13]; [16]
  Plant response rating, Ryegrass, Italian: 30
[13]; [17]
  Plant response rating, Ryegrass, Italian: 30
Kochia (Kochia scoparia) [14]; [16]
  Plant response rating, Kochia: 0
Kochia (Kochia scoparia) [14]; [17]
  Plant response rating, Kochia: 40
[15]; [16]
  Plant response rating, Blackgrass: 70
[15]; [17]
  Plant response rating, Blackgrass: 80
